Source: patent publication US20050197350A1, “Novel quinoline, tetrahydroquinazoline, and pyrimidine derivatives and methods of treatment related to the use thereof” (TAISHO PHARMACEUTICAL CO., LTD., priority 2003, published 2005)

tested on: MCH receptors; assay: MCH receptor activity class (method not given); conditions: MCH receptor activity class 1-3 (percent of control at 10^-7 M or IC50)

For `COc1cccc(CNC(=S)N[C@H]2CC[C@@H](Nc3nccc(N(C)C)n3)CC2)c1OC` [compound 2333], which class is on record?
The class was 3 (Class 3 The value of percent of control at 10^−7 M was more than 60% or the value of IC50 was more than 200 nM.).

How did the class turn out when `CN(C)c1ccnc(N[C@H]2CC[C@@H](CNC(=O)Nc3c(Cl)cccc3Cl)CC2)n1` [compound 2445] was run?
The class was 1 (Class 1: The value of percent of control at 10^−7 M was less than 40% or the value of IC50 was less than 50 nM.).

same assay, conditions: MCH receptor; class by percent of control at 10^-7 M or IC50

With `CN(C)c1nc(N[C@H]2CC[C@@H](NC(=S)Nc3cc(C(F)(F)F)cc(C(F)(F)F)c3)CC2)nc2c1CCCC2` [compound 1927] as the compound, how does the class read?
The class was 3 (Class 3 The value of percent of control at 10^−7 M was more than 60% or the value of IC50 was more than 200 nM.).

How did the class turn out when `CN(C)c1cc(N[C@H]2CC[C@@H](NC(=O)c3cnc4ccccc4n3)CC2)nc2ccccc12` [compound 114, N-(cis-4-{[4-(dimethylamino)quinolin-2-yl]amino}cyclohexyl)quinoxaline-2-carboxamide] was run?
Its class is 2 (Class 2: The value of percent of control at 10^−7 M was from 40% to 60% or the value of IC′50 was from 50 nM to 200 nM.).

Which class does the source give for `COc1ccc(CC(=O)N[C@H]2CC[C@@H](Nc3cc(N(C)C)c4ccccc4n3)CC2)cc1` [compound 69] here?
Its class is 3 (Class 3 The value of percent of control at 10^−7 M was more than 60% or the value of IC50 was more than 200 nM.).

For `Cc1cc(C(=O)N[C@H]2CC[C@@H](Nc3cc(N(C)C)c4ccccc4n3)CC2)ccc1Br` [compound 57, 4-bromo-N-(cis-4-{[4-(dimethylamino)quinolin-2-yl]amino}cyclohexyl)-3-methylbenzamide], which class is on record?
Its class is 1 (Class 1: The value of percent of control at 10^−7 M was less than 40% or the value of IC50 was less than 50 nM.).

With `CN(C)c1cc(N[C@H]2CC[C@@H](NC(=O)c3cccc(F)c3)CC2)nc2ccccc12` [compound 105, N-(cis-4-{[4-(dimethylamino)quinolin-2-yl]amino}cyclohexyl)-3-fluorobenzamide] as the compound, how does the class read?
Its class is 2 (Class 2: The value of percent of control at 10^−7 M was from 40% to 60% or the value of IC′50 was from 50 nM to 200 nM.).

Which class does the source give for `CN(C)c1cc(N[C@H]2CC[C@@H](NC(=O)c3cc(F)cc(F)c3)CC2)nc2ccccc12` [compound 34, N-(cis-4-{[4-(dimethylamino)quinolin-2-yl]amino}cyclohexyl)-3,5-difluorobenzamide] here?
The class was 2 (Class 2: The value of percent of control at 10^−7 M was from 40% to 60% or the value of IC′50 was from 50 nM to 200 nM.).

same assay, conditions: activity class per percent of control at 10^-7 M or IC50

How did the class turn out when `CN(C)c1nc(N[C@H]2CC[C@@H](NC(=O)[C@H](CCCCNC(=O)c3ccccc3)NC(=O)c3ccccc3)CC2)nc2c1CCCC2` (relative stereo) [compound 980] was run?
The class was 2 (Class 2: The value of percent of control at 10^−7 M was from 40% to 60% or the value of IC′50 was from 50 nM to 200 nM.).

same assay, conditions: class by percent of control at 10^-7 M or IC50

With `Cc1ccc(C(=O)NC[C@H]2CC[C@@H](Nc3nc4c(c(N(C)C)n3)CCCC4)CC2)c(F)c1F` [compound 622] as the compound, how does the class read?
The class was 3 (Class 3 The value of percent of control at 10^−7 M was more than 60% or the value of IC50 was more than 200 nM.).

`CN(C)c1nc(NC2CCC(NC(=S)NC3CC4CCC3C4)CC2)nc2c1CCCC2` (centres unmarked) [compound 1790] was tested. Which class did it give?
Its class is 3 (Class 3 The value of percent of control at 10^−7 M was more than 60% or the value of IC50 was more than 200 nM.).

With `CN(C)c1ccnc(N[C@H]2CC[C@@H](CNC(=O)c3ccccc3Cc3ccccc3)CC2)n1` [compound 936] as the compound, how does the class read?
Its class is 2 (Class 2: The value of percent of control at 10^−7 M was from 40% to 60% or the value of IC′50 was from 50 nM to 200 nM.).

Which class does the source give for `CN(C)c1ccnc(N[C@H]2CC[C@@H](NC(=O)c3scc(S(C)(=O)=O)c3Cl)CC2)n1` [compound 903] here?
The class was 3 (Class 3 The value of percent of control at 10^−7 M was more than 60% or the value of IC50 was more than 200 nM.).

How did the class turn out when `CCOC(=O)c1cccc(NC(=O)N[C@H]2CC[C@@H](Nc3nccc(N(C)C)n3)CC2)c1` [compound 2217] was run?
The class was 3 (Class 3 The value of percent of control at 10^−7 M was more than 60% or the value of IC50 was more than 200 nM.).

How did the class turn out when `COc1ccc(OC)c(NC(=O)N[C@H]2CC[C@@H](Nc3nc4c(c(N(C)C)n3)CCCC4)CC2)c1` [compound 1849, N-(2,5-dimethoxyphenyl)-N′-(cis-4-{[4-(dimethylamino)-5,6,7,8-tetrahydroquinazolin-2-yl]amino}cyclohexyl)urea] was run?
The class was 2 (Class 2: The value of percent of control at 10^−7 M was from 40% to 60% or the value of IC′50 was from 50 nM to 200 nM.).

How did the class turn out when `CCc1ccccc1NC(=O)N[C@H]1CC[C@@H](Nc2cc(N(C)C)c3ccccc3n2)CC1` [compound 2107] was run?
Its class is 3 (Class 3 The value of percent of control at 10^−7 M was more than 60% or the value of IC50 was more than 200 nM.).

For `COc1ccc(OC)c(CC(=O)N[C@H]2CC[C@@H](Nc3nccc(N(C)C)n3)CC2)c1` [compound 253], which class is on record?
Its class is 3 (Class 3 The value of percent of control at 10^−7 M was more than 60% or the value of IC50 was more than 200 nM.).

How did the class turn out when `COc1ccc(NC(=O)N[C@H]2CC[C@@H](Nc3nc4c(c(N(C)C)n3)CCCC4)CC2)c(C)c1` [compound 1726] was run?
The class was 2 (Class 2: The value of percent of control at 10^−7 M was from 40% to 60% or the value of IC′50 was from 50 nM to 200 nM.).

With `COc1ccc(CSC2(CC(=O)N[C@H]3CC[C@@H](Nc4nccc(N(C)C)n4)CC3)CCCCC2)cc1` [compound 853] as the compound, how does the class read?
The class was 3 (Class 3 The value of percent of control at 10^−7 M was more than 60% or the value of IC50 was more than 200 nM.).

With `CN(C)c1cc(N[C@H]2CC[C@@H](CNCc3cc(Cl)cc(Cl)c3)CC2)nc2ccccc12` [compound 1187] as the compound, how does the class read?
The class was 3 (Class 3 The value of percent of control at 10^−7 M was more than 60% or the value of IC50 was more than 200 nM.).

Which class does the source give for `CN(C)c1ccnc(N[C@H]2CC[C@@H](NC(=O)c3ccccc3CCc3ccccc3)CC2)n1` [compound 872] here?
The class was 3 (Class 3 The value of percent of control at 10^−7 M was more than 60% or the value of IC50 was more than 200 nM.).

`COc1ccccc1NC(=S)N[C@H]1CC[C@@H](Nc2nccc(N(C)C)n2)CC1` [compound 2263] was tested. Which class did it give?
Its class is 3 (Class 3 The value of percent of control at 10^−7 M was more than 60% or the value of IC50 was more than 200 nM.).

same assay, conditions: class by percent of control at 10^−7 M or IC50

Which class does the source give for `Cc1cc(N(C)C)nc(N[C@H]2CC[C@@H](CNC(=O)c3ccc(OC(F)(F)F)cc3)CC2)n1` [compound 2760] here?
Its class is 3 (Class 3 The value of percent of control at 10^−7 M was more than 60% or the value of IC50 was more than 200 nM.).

For `Cc1cnc(N[C@H]2CC[C@@H](NC(=O)c3cccnc3Oc3ccc(I)cc3)CC2)nc1N(C)C` [compound 2889, N-(cis-4-{[4-(dimethylamino)-5-methylpyrimidin-2-yl]amino}cyclohexyl)-2-(4-iodophenoxy)nicotinamide], which class is on record?
Its class is 1 (Class 1: The value of percent of control at 10^−7 M was less than 40% or the value of IC50 was less than 50 nM.).

With `Cc1cnc(N[C@H]2CC[C@@H](NC(=O)c3ccc(C#N)cc3)CC2)nc1N(C)C` [compound 2909, 4-cyano-N-(cis-4-{[4-(dimethylamino)-5-methylpyrimidin-2-yl]amino}cyclohexyl)benzamide] as the compound, how does the class read?
The class was 1 (Class 1: The value of percent of control at 10^−7 M was less than 40% or the value of IC50 was less than 50 nM.).

`Cc1cnc(N[C@H]2CC[C@@H](C(=O)Nc3ccc(C(F)(F)F)cc3)CC2)nc1N(C)C` [compound 2791, cis-4-{[4-(dimethylamino)-5-methylpyrimidin-2-yl]amino}-N-[4-(trifluoromethyl)phenyl]cyclohexanecarboxamide] was tested. Which class did it give?
The class was 1 (Class 1: The value of percent of control at 10^−7 M was less than 40% or the value of IC50 was less than 50 nM.).
